Remaining binding data for three compounds are collected here from paper PMC6437697 (Journal of Medicinal Chemistry, 2019).

Experiment in all cases: KINOMEscan
Holding throughout (format): binding
Common to all, as to details: read-out: % control activity remaining

The target of one test is T1, YANK1 (Homo sapiens, UniProt Q8WU08).
T1 construct: purchased Eurofins DiscoverX KINOMEscan

For another test, the target named is T2, PAK3 (Homo sapiens, UniProt O75914).
T2 construct: purchased Eurofins DiscoverX KINOMEscan
T2 sequence (O75914 whole entry): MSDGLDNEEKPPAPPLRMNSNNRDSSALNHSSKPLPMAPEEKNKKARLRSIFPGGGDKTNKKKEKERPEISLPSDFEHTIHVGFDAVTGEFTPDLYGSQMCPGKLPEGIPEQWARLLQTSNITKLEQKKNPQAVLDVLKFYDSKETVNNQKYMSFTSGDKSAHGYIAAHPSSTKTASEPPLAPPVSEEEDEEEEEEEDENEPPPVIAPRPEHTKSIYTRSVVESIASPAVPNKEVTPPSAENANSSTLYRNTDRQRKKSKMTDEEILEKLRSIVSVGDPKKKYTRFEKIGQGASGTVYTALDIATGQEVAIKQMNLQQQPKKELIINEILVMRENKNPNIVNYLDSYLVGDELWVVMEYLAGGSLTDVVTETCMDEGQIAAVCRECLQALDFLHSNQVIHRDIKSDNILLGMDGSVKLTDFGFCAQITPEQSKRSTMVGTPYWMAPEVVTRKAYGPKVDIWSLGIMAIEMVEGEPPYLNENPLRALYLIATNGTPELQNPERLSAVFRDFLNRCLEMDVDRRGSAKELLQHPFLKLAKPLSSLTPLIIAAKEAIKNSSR

Test [1] deals with T3, JAK2(JH1domain-catalytic) (Homo sapiens, UniProt O60674).
T3 construct: JAK2(JH1domain-catalytic); purchased Eurofins DiscoverX KINOMEscan
T3 sequence (O60674 849-1132 limits assumed): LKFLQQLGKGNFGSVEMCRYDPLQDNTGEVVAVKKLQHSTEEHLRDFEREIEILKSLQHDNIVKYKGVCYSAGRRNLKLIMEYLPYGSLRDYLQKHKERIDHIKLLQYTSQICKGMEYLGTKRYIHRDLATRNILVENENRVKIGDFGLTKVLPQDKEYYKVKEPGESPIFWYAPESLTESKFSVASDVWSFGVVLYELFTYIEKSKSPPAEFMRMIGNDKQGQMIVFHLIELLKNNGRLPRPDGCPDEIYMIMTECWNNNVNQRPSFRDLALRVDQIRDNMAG

Another test deals with T4, WNK3 (Homo sapiens, UniProt Q9BYP7).
T4 construct: purchased Eurofins DiscoverX KINOMEscan

A further test addresses T5, TGFBR2 (Homo sapiens, UniProt P37173).
T5 construct: purchased Eurofins DiscoverX KINOMEscan

For another test, the target named is T6, STK33 (Homo sapiens, UniProt Q9BYT3).
T6 construct: purchased Eurofins DiscoverX KINOMEscan
T6 sequence (Q9BYT3 whole entry): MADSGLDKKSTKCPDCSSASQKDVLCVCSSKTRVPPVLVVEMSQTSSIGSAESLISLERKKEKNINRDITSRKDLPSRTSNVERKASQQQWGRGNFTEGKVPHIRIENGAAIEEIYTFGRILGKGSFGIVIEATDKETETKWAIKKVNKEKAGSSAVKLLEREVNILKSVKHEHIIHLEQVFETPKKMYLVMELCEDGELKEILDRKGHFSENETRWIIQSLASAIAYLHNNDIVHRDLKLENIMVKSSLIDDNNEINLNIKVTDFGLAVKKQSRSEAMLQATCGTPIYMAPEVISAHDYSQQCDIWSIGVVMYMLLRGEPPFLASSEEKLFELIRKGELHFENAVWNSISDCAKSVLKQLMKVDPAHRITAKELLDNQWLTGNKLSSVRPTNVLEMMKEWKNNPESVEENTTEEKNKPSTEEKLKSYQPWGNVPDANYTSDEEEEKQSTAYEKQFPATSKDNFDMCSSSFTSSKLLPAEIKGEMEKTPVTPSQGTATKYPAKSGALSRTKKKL

A further test has as its target T7, NDR1 (Homo sapiens, UniProt Q15208).
T7 construct: purchased Eurofins DiscoverX KINOMEscan

A further test addresses T8, PKMYT1 (Homo sapiens, UniProt Q99640).
T8 construct: purchased Eurofins DiscoverX KINOMEscan
T8 sequence (Q99640 1-499): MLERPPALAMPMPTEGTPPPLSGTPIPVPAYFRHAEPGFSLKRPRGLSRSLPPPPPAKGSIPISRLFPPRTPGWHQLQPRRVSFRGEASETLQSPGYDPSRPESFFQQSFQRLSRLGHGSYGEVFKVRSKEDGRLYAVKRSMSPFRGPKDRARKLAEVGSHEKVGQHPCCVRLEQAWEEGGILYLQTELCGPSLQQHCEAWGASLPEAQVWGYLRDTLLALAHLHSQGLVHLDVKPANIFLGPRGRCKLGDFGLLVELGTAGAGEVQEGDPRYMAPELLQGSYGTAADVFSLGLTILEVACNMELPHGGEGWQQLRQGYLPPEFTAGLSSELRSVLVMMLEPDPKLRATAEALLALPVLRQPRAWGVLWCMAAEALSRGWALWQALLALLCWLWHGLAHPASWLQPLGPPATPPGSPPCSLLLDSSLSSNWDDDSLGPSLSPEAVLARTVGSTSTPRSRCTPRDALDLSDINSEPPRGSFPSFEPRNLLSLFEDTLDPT

The next test concerns the target T9, EPHB1 (Homo sapiens, UniProt P54762).
T9 construct: purchased Eurofins DiscoverX KINOMEscan
T9 sequence (P54762 18-984): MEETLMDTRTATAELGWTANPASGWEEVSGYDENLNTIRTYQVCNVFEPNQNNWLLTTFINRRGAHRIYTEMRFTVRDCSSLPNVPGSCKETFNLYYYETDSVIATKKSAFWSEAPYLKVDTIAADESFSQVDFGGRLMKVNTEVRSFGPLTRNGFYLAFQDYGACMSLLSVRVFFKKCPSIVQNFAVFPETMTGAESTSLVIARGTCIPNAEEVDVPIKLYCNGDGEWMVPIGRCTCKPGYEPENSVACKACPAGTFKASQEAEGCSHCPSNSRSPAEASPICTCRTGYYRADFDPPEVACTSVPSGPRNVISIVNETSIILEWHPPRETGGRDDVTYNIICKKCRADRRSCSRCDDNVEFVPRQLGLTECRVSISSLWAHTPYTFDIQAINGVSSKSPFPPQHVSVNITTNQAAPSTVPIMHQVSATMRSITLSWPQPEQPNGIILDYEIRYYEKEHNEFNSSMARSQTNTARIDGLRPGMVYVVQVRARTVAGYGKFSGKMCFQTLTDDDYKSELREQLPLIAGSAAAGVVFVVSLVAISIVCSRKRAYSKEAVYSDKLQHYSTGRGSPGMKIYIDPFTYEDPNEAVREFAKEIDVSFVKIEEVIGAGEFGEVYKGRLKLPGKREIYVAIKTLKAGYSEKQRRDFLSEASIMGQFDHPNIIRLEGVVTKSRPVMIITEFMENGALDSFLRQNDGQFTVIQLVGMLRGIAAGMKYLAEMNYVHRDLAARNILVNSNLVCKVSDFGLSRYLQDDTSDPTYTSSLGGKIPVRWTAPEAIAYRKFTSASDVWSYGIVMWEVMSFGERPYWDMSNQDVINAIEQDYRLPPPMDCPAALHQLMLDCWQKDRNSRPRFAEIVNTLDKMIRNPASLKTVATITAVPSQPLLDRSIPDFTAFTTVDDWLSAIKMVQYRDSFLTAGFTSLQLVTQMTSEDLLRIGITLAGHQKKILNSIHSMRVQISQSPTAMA

In the next test the target is T10, MET(Y1235D) (Homo sapiens, UniProt P08581, Y1235D).
T10 construct: purchased Eurofins DiscoverX KINOMEscan
T10 sequence (P08581 25-1390 Y1235D): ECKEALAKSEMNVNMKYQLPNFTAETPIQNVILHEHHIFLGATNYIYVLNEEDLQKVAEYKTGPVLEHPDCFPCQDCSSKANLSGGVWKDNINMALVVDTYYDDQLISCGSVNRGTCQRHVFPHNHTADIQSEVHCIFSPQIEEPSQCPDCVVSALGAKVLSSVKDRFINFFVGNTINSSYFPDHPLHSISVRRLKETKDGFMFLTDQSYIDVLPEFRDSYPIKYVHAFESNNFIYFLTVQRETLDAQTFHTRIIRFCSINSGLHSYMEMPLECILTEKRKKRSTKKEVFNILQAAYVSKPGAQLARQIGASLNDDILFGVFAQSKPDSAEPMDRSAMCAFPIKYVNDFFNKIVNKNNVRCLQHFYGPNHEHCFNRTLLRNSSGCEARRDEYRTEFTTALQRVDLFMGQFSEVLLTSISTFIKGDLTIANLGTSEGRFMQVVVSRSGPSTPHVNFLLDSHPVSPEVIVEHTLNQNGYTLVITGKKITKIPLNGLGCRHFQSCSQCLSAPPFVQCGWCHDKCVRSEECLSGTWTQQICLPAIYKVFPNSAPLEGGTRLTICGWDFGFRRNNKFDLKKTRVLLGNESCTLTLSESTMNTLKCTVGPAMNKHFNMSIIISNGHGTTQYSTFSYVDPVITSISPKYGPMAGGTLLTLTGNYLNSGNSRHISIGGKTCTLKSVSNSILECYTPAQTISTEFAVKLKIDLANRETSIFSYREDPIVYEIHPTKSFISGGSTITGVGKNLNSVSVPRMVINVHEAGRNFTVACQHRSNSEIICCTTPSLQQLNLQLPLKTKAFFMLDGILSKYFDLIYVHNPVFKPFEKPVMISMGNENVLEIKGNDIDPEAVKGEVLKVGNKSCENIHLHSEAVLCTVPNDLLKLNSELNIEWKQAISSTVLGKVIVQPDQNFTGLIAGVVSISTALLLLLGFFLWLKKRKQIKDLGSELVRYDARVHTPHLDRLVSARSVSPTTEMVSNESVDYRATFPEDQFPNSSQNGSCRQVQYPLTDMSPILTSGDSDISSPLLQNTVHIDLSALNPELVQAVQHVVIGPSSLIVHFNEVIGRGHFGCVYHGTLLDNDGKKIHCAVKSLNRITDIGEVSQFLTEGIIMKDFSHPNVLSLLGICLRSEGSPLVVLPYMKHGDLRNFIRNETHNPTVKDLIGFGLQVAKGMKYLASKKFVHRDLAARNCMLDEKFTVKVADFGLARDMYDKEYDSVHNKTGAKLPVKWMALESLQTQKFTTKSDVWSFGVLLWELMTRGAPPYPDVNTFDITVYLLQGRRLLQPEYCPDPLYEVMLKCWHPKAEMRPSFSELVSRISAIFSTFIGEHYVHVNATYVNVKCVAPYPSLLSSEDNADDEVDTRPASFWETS

For the next test, the target named is T11, EGFR(G719C) (Homo sapiens, UniProt P00533, G719C).
T11 construct: purchased Eurofins DiscoverX KINOMEscan
T11 sequence (P00533 25-1210 G719C limits assumed): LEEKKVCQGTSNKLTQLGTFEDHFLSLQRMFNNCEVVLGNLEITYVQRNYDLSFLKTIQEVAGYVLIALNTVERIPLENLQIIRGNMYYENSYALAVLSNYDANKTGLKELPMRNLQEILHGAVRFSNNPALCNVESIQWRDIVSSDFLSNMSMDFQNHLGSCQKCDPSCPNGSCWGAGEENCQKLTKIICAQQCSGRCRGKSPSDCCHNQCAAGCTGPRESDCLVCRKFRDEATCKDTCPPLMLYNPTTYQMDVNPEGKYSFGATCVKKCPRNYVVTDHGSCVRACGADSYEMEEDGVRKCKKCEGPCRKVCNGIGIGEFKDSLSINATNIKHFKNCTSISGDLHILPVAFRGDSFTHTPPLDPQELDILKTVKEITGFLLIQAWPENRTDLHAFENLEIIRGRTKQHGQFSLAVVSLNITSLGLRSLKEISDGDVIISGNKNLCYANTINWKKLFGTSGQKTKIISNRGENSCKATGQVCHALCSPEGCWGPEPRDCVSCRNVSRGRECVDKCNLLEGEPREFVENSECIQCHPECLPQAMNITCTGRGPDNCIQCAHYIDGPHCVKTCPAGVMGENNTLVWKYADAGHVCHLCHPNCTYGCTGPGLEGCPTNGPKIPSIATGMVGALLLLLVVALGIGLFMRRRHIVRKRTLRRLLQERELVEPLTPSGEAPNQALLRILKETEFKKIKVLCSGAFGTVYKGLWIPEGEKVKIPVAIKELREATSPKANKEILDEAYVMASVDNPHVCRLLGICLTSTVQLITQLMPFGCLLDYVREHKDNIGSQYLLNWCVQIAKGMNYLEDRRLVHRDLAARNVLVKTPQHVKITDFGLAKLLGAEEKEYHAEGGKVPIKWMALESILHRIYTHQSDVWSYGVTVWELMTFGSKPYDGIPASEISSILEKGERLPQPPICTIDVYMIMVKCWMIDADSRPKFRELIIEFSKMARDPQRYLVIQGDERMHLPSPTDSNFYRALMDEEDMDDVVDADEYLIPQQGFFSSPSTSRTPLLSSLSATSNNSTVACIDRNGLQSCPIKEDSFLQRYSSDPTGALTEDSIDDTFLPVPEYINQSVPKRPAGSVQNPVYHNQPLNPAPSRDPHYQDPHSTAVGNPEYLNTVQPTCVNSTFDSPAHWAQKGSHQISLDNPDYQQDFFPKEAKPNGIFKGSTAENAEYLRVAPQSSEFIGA

T1 sequence (Q8WU08 whole entry): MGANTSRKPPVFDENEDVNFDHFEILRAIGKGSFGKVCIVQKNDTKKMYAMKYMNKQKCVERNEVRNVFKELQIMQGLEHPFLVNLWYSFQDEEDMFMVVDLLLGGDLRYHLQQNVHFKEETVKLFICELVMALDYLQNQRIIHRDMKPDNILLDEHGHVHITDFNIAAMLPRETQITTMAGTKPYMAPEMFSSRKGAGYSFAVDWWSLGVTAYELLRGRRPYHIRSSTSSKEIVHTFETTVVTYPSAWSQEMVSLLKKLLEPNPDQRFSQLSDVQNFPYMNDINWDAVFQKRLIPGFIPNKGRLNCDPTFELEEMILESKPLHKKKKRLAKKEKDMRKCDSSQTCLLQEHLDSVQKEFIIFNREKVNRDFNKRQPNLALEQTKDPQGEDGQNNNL
T5 sequence (P37173 23-567): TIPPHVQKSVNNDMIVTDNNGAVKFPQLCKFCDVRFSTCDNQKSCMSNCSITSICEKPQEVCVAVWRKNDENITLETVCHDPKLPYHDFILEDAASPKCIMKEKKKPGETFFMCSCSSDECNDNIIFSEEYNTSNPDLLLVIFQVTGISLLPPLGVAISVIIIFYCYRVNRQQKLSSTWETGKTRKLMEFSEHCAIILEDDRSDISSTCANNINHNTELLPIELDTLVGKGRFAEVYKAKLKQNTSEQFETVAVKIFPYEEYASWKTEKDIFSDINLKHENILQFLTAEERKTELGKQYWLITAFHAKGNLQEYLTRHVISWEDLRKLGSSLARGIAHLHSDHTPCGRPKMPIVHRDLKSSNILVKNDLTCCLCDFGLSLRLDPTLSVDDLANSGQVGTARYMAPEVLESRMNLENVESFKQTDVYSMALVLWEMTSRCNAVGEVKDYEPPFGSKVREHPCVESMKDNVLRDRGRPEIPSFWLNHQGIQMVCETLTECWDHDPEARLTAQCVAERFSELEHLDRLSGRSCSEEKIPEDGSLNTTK

In the case of `Clc1cc(NCC2CC2)c2ncc(-c3ccc4[nH]ncc4c3)n2n1` [compound 2, 6-Chloro-N-(cyclopropylmethyl)-3-(1H-indazol-5-yl)imidazo[1,2-b]pyridazin-8-amine], the remaining binding at 1 µM at YANK1 was determined as 95%; at PAK3, 63%; in test [1] it was 91%; on WNK3, 96%; at TGFBR2, 100%; on STK33 it was 47%. The remaining binding at 1 µM is 75% on NDR1; 81% on PKMYT1; 100% on EPHB1; 100% on MET(Y1235D); 91% at EGFR(G719C).
As for `O=C(CN1CCOCC1)N[C@H]1CC[C@H](Nc2cc(Cl)nn3c(-c4ccc5[nH]ncc5c4)cnc23)CC1` [compound 26], the remaining binding at 1 µM came out at 98% on YANK1; 81% on PAK3; 99% in [1]; 100% at WNK3; 100% at TGFBR2; 25% at STK33. Besides, the remaining binding at 1 µM at NDR1 worked out at 96%; on PKMYT1 it was 94%; on EPHB1, 89%; at MET(Y1235D), 97%; at EGFR(G719C), 93%.
For `CN1CCC(CNc2cc(Cl)nn3c(-c4cc5nc(Nc6ccccc6)[nH]c5cc4F)cnc23)CC1` [compound 31, 6-Chloro-3-(6-fluoro-2-(phenylamino)-1H-benzo[d]imidazol-5-yl)-N-((1-methylpiperidin-4-yl)methyl)imidazo[1,2-b]pyridazin-8-amine], the remaining binding at 1 µM on YANK1 worked out at 73%; at PAK3, 100%; in [1], 100%; at WNK3, 82%; at TGFBR2, 100%; on STK33 it was 100%. Moreover, the remaining binding at 1 µM at NDR1 was found to be 86%; on PKMYT1 it was 100%; at EPHB1, 84%; on MET(Y1235D) it was 99%; on EGFR(G719C) it was 71%.
